# Test results as given in the PolyMetriX glass transition set.
# ± gives the standard deviation of the reports.
row,SMILES,glass transition temperature
1,*CC1CCC(CNC(=O)c2cccc(C(=O)N*)c2)CC1 (repeat unit),208.00 °C
2,*CC(*)C(=O)c1ccc(Cl)cc1 (repeat unit),63.00 °C
3,*c1cc(CCCC)c(*)s1 (repeat unit),54.50 ± 6.4 °C
4,*CC(*)(C)C(=O)OC1CC2CCC1(C)C2(C)C (repeat unit),180.50 °C
5,*CCCCCC(=O)S* (repeat unit),19.00 °C
6,*CC(*)c1ccc(COCCCC)cc1 (repeat unit),10.00 °C
7,*c1cccc(S(=O)(=O)NCCCCNS(*)(=O)=O)c1 (repeat unit),82.00 °C
8,*CCOC(=O)/C=C/C(=O)NCCCCCCNC(=O)/C=C/C(=O)O* (repeat unit),89.00 °C
9,*CC(*)C(=O)n1c2ccccc2c2ccccc21 (repeat unit),50.10 °C
10,*CC(C)(CO*)COCC(F)(F)C(F)(F)C(F)(F)F (repeat unit),-45.00 °C
11,*CC(O)CN(*)c1ccc(/N=N/c2ccc([N+](=O)[O-])cc2C)cc1 (repeat unit),156.00 °C
12,*CC(*)(C)C(=O)OCc1ccc(Cl)cc1Cl (repeat unit),19.40 °C
13,*CC(*)(C)c1ccc(C(C)C)cc1 (repeat unit),140.00 °C
14,*CC(*)(C)C(=O)OCc1ccco1 (repeat unit),111.00 °C
15,*/C(C)=C(/*)[Si](C)(C)CC[Si](C)(C)C (repeat unit),200.00 °C
16,*CC(*)C(=O)OC(C)C (repeat unit),-5.00 °C
17,*CCCCCCCCOC(=O)NCCCCCCNC(=O)O* (repeat unit),58.00 °C
18,*=NP(=NP(=NC(=*)Oc1ccc(C(F)(F)F)cc1)(Oc1ccc(C(F)(F)F)cc1)Oc1ccc(C(F)(F)F)cc1)(Oc1ccc(C(F)(F)F)cc1)Oc1ccc(C(F)(F)F)cc1 (repeat unit),31.00 °C
19,*C(F)(F)C1(F)C(F)(F)C(*)(F)C(F)(F)C(F)(F)C(F)(F)C1(F)F (repeat unit),198.00 °C
20,*CC(OCC(C)C)C1C(=O)OC(=O)C1* (repeat unit),145.00 °C
21,*CC(*)(C)C(=O)OCCCC (repeat unit) [poly(butyl methacrylate)],22.42 ± 6.3 °C
22,*CC(*)c1cc(C(C)(C)C)ccc1C (repeat unit),87.00 °C
23,*c1ccc(-c2ccc(-c3cc(-c4ccccc4)c4cc5nc(*)cc(-c6ccccc6)c5cc4n3)cc2)cc1 (repeat unit),383.00 °C
24,*CC(O)COc1cccc(O*)c1 (repeat unit),65.00 °C
25,*O[Si](C)(C)C#C[Si](C)(C)C#C[Si](C)(C)C#C[Si](C)(C)C#C[Si](C)(C)C#C[Si](C)(C)C#C[Si](*)(C)C (repeat unit),-12.60 °C
26,*c1ccc(Nc2c(F)c(F)c(-c3c(F)c(F)c(Nc4ccc(S(*)(=O)=O)cc4)c(F)c3F)c(F)c2F)cc1 (repeat unit),332.00 °C
27,*CC(*)(C)C(=O)OC1CCC2CCCCC2C1 (repeat unit),145.00 °C

# More lines, now with the values ahead:
row,glass transition temperature,SMILES
1,314.00 °C,*c1ccc(Oc2ccc(S(=O)(=O)c3ccc(Oc4ccc(-c5c6c(c(*)c7ccccc57)C(=O)N(C)C6=O)cc4)cc3)cc2)cc1 (repeat unit)
2,253.00 °C,*C(=O)c1ccc2c(c1)/C(=N\c1ccc(Oc3cccc(/N=C4/OC(=O)c5ccc(*)cc54)c3)cc1)OC2=O (repeat unit)
3,97.00 °C,*CC(O)COC(=O)c1cccc(C(=O)OCC(O)COc2ccc(C(C)(C)c3ccc(O*)cc3)cc2)c1 (repeat unit)
4,50.00 °C,*Oc1ccc(OC(=O)c2cc(OCCCCCCCOCC3CCCN3c3ccc([N+](=O)[O-])cc3)c(C(*)=O)cc2OCCCCCCCOCC2CCCN2c2ccc([N+](=O)[O-])cc2)cc1 (repeat unit)
5,220.00 °C,*/C(=C/c1ccc(/C=C(\c2ccccc2)c2ccc(-c3ccc(*)cc3)cc2)cc1)c1ccccc1 (repeat unit)
6,86.00 °C,*c1ccc(C(=O)OCCCCCCCCOC(=O)c2ccc(-c3nnc(*)s3)cc2)cc1 (repeat unit)
7,98.00 °C,*Oc1ccc(C(C)(C)c2ccc(Oc3c(F)c(F)c(COC(c4cccc(C(OCc5c(F)c(F)c(*)c(F)c5F)(C(F)(F)F)C(F)(F)F)c4)(C(F)(F)F)C(F)(F)F)c(F)c3F)cc2)cc1 (repeat unit)
8,29.00 °C,*c1ccc2c(c1)C(CCCCCCCC)(CCCCCCCC)c1cc(-c3c(F)c(F)c(*)c(F)c3F)ccc1-2 (repeat unit)
9,266.50 °C,*c1ccc2c(c1)C(=O)N(c1cc(C(c3ccc(OC(C)=O)c(N4C(=O)c5ccc(C(*)(C(F)(F)F)C(F)(F)F)cc5C4=O)c3)(C(F)(F)F)C(F)(F)F)ccc1OC(C)=O)C2=O (repeat unit)
10,225.00 °C,*C(=O)c1ccc(Oc2ccc(Oc3ccc(C(=O)c4ccc5c(c4)C(=O)N(c4ccc(Cc6ccc(N7C(=O)c8ccc(*)cc8C7=O)cc6)cc4)C5=O)cc3)cc2)cc1 (repeat unit)
11,145.00 °C,*c1cc(C)c(/N=C/c2ccc(OCc3ccc(COc4ccc(/C=N/c5cc(C)c(N6C(=O)c7ccc8c9ccc%10c%11c(ccc(c%12ccc(c7c8%12)C6=O)c%119)C(=O)N(*)C%10=O)cc5C)cc4OC)cc3)c(OC)c2)cc1C (repeat unit)
12,185.50 °C,*Oc1ccc(-c2ccc(OC(=O)c3cccc(C(*)=O)c3)cc2)cc1 (repeat unit)
13,240.00 °C,*Oc1ccc(C(=O)Nc2ccc(Cc3ccc(NC(=O)c4ccc(Oc5ccc(C(=O)c6ccc(S(=O)(=O)c7ccc(C(=O)c8ccc(*)cc8)cc7)cc6)cc5)cc4)cc3)cc2)cc1 (repeat unit)
14,61.00 °C,*Oc1cc(OC(=O)c2ccc(OCCCC)cc2)c(OC(=O)C(C)(C)CCC(*)=O)cc1OC(=O)c1ccc(OCCCC)cc1 (repeat unit)
15,188.00 °C,*Oc1ccc(S(=O)(=O)c2ccc(Oc3ccc(C(C)(C)c4ccc(*)cc4)cc3)c(S(=O)(=O)O)c2)cc1S(=O)(=O)O (repeat unit)
16,175.00 °C,*c1ccc(NC(=O)c2ccc(OCCOCCOc3ccc(C(=O)Nc4ccc5[nH]c(*)nc5c4)cc3)cc2)cc1 (repeat unit)
17,201.00 °C,*Cc1ccccc1CN(CC)c1ccc(/C=C/c2ccc(/C=C(\C#N)C(=O)NC3CCCCC3NC(=O)/C(C#N)=C/c3ccc(/C=C/c4ccc(N(*)CC)cc4)cc3)cc2)cc1 (repeat unit)
18,301.10 °C,*C(=O)c1ccc2c(c1)C(=O)N(c1c(C)cc(C(c3cc(C(F)(F)F)cc(C(F)(F)F)c3)c3cc(C)c(N4C(=O)c5ccc(*)cc5C4=O)c(C)c3)cc1C)C2=O (repeat unit)
19,40.00 °C,*CCCCCCOC(=O)OCCCCCCOC(=O)OCCCCCCN1C(=O)c2ccc(C(=O)c3ccc4c(c3)C(=O)N(*)C4=O)cc2C1=O (repeat unit)
20,95.00 °C,*CC(C)(CCC)COC(=O)c1ccc(-c2ccc(C(=O)O*)cc2)cc1 (repeat unit)

row,glass transition temperature,SMILES
1,275.00 °C,*C(=O)Nc1ccc(S(=O)(=O)c2ccc(NC(=O)c3ccc4c(c3)C(=O)N(c3ccc(Oc5ccc(N6C(=O)c7ccc(*)cc7C6=O)cc5)cc3)C4=O)cc2)cc1 (repeat unit)
2,102.00 °C,*CC(*)c1cc(-c2ccc(C(=O)OC(C)CCCCCC)cc2)ccc1-c1ccc(C(=O)OC(C)CCCCCC)cc1 (repeat unit)
3,206.50 °C,*NC(=O)Nc1ccc(Cc2ccc(NC(=O)Nc3cccc(*)n3)cc2)cc1 (repeat unit)
4,120.00 °C,*Oc1ccccc1C(=O)OC(=O)c1ccccc1OC(=O)c1ccc(C(*)=O)cc1 (repeat unit)
5,60.80 °C,*CC(*)C(=O)OCCOC(=O)c1cc([N+](=O)[O-])cc([N+](=O)[O-])c1 (repeat unit)
6,147.00 °C,*Oc1ccc(Oc2ccc(OC(=O)c3ccccc3-c3ccccc3C(*)=O)cc2)cc1 (repeat unit)
7,165.00 °C,*CCOC(=O)Nc1ccc(C)c(NC(=O)OCCOc2cc([N+](=O)[O-])ccc2/N=N/c2cn(*)c3ccc(-c4ccccc4)cc23)c1 (repeat unit)
8,-42.00 °C,*CC(*)c1ccc(COCCOCCCCCCCC)cc1 (repeat unit)
9,74.00 °C,*Oc1cccc(C(F)(F)C(F)(F)C(F)(F)c2cccc(OC(=O)c3cccc(C(F)(F)C(F)(F)C(F)(F)c4cccc(C(*)=O)c4)c3)c2)c1 (repeat unit)
10,56.00 °C,*CC(*)(C)C(=O)OCCCCCCCCCCOc1ccc(/N=N/c2ccccc2)cc1 (repeat unit)
11,74.00 °C,*OC(c1ccco1)C(OC(=O)Nc1ccc(Cc2ccc(NC(*)=O)cc2)cc1)c1ccco1 (repeat unit)
12,134.00 °C,*Oc1ccc(OC(=O)c2ccc(C(*)=O)cc2Sc2ccc(C)cc2)cc1 (repeat unit)
13,165.00 °C,*CCOCCOCCOc1ccc(C(=O)Nc2cc(NC(=O)c3ccc(O*)cc3)cc(-c3nc4ccccc4[nH]3)c2)cc1 (repeat unit)
14,71.00 °C,*OC(=O)C(CCSC)NC(=O)CCCCC(=O)NC(CCSC)C(=O)OC1COC2C(*)COC12 (repeat unit)
15,177.00 °C,*Oc1ccc2ccc(Oc3ccc(C(=O)Nc4ccc(Oc5ccc(C(C)(c6ccccc6)c6ccc(Oc7ccc(NC(=O)c8ccc(*)cc8)cc7)cc6)cc5)cc4)cc3)cc2c1 (repeat unit)
16,340.00 °C,*Nc1ccc(-c2ccc(NC(=O)c3ccc(C(*)=O)cc3)cc2)cc1 (repeat unit)
17,207.50 °C,*Oc1ccc(-c2ccc(-c3ccc(Oc4ccc(C(c5ccc(*)cc5)(C(F)(F)F)C(F)(F)F)cc4)c(C(F)(F)F)c3)cc2)cc1C(F)(F)F (repeat unit)
18,50.00 °C,*Nc1ccc(Cc2ccc(NC(=O)NCCCCCCCCNC(*)=O)cc2)cc1 (repeat unit)
19,60.00 °C,*CCCCCCCCCCOc1ccc(/C=C2\CCC/C(=C\c3ccc(O*)c(OC)c3)C2=O)cc1OC (repeat unit)
